Data on ten molecules can be found in ChEMBL document CHEMBL5226384, “Total Syntheses, Absolute Configurations, and Cytotoxicity Evaluation of Ugonstilbenes A, B, and C from the Rhizomes of Helminthostachys zeylanica” (J Nat Prod, 2023).

For one series, the system named is NCI-H460. The series is described as follows: Cytotoxicity against human NCI-H460 cells assessed as reduction in cell viability incubated for 6 hrs by SRB assay. In kind it is functional, cell-based. Conditions: NCI-H460, 6 h. For orientation: The SRB assay estimates cell density from bound dye.
A further series concerns HT-29. In words: Cytotoxicity against human HT-29 cells assessed as reduction in cell viability incubated for 6 hrs by SRB assay. In kind it is functional, cell-based. Particulars: HT-29, 6 h.
Series [1] is described as follows: Cytotoxicity against fibroblast (unknown origin) cells assessed as reduction in cell viability incubated for 6 hrs by SRB assay. In kind it is toxicity, cell-based.
The next series concerns CCRF-CEM. The series is described as follows: Cytotoxicity against human CCRF-CEM cells assessed as reduction in cell viability incubated for 6 hrs by SRB assay. In kind it is functional, cell-based.
The subject of a further series is MCF7. In words: Cytotoxicity against human MCF7 cells assessed as reduction in cell viability incubated for 6 hrs by SRB assay. Particulars: MCF7, 6 h. In kind it is functional, cell-based.

Usually IC50 stands for the concentration needed to halve the response being measured. Take `CC1=CCCC(C)(C)[C@@H]1Cc1cc(/C=C/c2cc(O)cc(O)c2)ccc1O`: the IC50 turned out to be 5.5 µM in the series with NCI-H460, 5.2 µM in the series with HT-29, 3 µM with CCRF-CEM and 4.1 µM in the series on MCF7. Further, the concentration for half-maximal inhibition (IC50) at 6 h in series [1] came to 7.1 µM.

Regarding `CC1=CCCC(C)(C)[C@H]1Cc1cc(/C=C/c2cc(O)cc(O)c2)ccc1O`, the IC50 was determined as 6 µM in the series on NCI-H460, 5 µM with HT-29, 2.8 µM in the series with CCRF-CEM and 4.4 µM in the series with MCF7. Besides, the IC50 at 6 h in series [1] stood at 7.4 µM.

For the molecule `CC1(C)CCC[C@]2(C)Oc3cc(/C=C/c4ccc(O)cc4)cc(O)c3C[C@H]12`, the IC50 in the series with NCI-H460 came out at 1.4 µM; in the series on HT-29, 3.6 µM; with CCRF-CEM, 1.7 µM; in the series with MCF7, 1.9 µM. The IC50 at 6 h in series [1] came to 6.6 µM.

Regarding `CC1(C)CCC[C@]2(C)Oc3ccc(/C=C/c4cc(O)cc(O)c4)cc3C[C@H]12`, the IC50 was determined as 2.2 µM in the series on NCI-H460, 3.3 µM in the series on HT-29, 1.4 µM with CCRF-CEM and 1.7 µM in the series with MCF7. In series [1], the IC50 at 6 h stood at 8 µM.

As for `CC1=CCCC(C)(C)[C@H]1Cc1c(O)cc(/C=C/c2ccc(O)cc2)cc1O`, the IC50 came out at 1.7 µM with NCI-H460, 2.5 µM with HT-29, 0.82 µM in the series on CCRF-CEM and 1.7 µM in the series with MCF7. Besides, the half-inhibitory concentration (IC50) at 6 h in series [1] was determined as 6.6 µM.

With `CC1(C)CCC[C@@]2(C)Oc3cc(/C=C/c4ccc(O)cc4)cc(O)c3C[C@@H]12`, the IC50 in the series on NCI-H460 turned out to be 1.7 µM; with HT-29 it was 2.2 µM; in the series on CCRF-CEM, 1.1 µM; in the series on MCF7, 1.4 µM. The IC50 at 6 h in series [1] is 7.1 µM.

For `CC1=CCCC(C)(C)[C@@H]1Cc1c(O)cc(/C=C/c2ccc(O)cc2)cc1O`, the IC50 came out at 1.7 µM in the series with NCI-H460, 4.4 µM in the series on HT-29, 0.27 µM in the series with CCRF-CEM and 8 µM in the series on MCF7. Also, the IC50 at 6 h in series [1] was found to be 6.6 µM.

Take `CC1(C)CCC[C@@]2(C)Oc3ccc(/C=C/c4cc(O)cc(O)c4)cc3C[C@@H]12`: the half-maximal inhibitory concentration (IC50) was 2.5 µM in the series on NCI-H460, 2.8 µM in the series with HT-29, 1.4 µM with CCRF-CEM and 2.8 µM in the series on MCF7. The IC50 at 6 h in series [1] stood at 6.9 µM.

On to `COc1cccc2c1C(=O)c1c(O)c3c(c(O)c1C2=O)C[C@@](O)(C(=O)CO)C[C@@H]3O[C@H]1C[C@H](N)[C@H](O)[C@H](C)O1` [DOXORUBICIN], for which the IC50 was found to be 0.01 µM in the series with NCI-H460, 0.12 µM in the series with HT-29, 0.09 µM in the series on CCRF-CEM and 0.27 µM with MCF7. The IC50 at 6 h in series [1] was 67 µM.

Turning to `Oc1ccc(/C=C/c2cc(O)cc(O)c2)cc1` [RESVERATROL], the IC50 is 58 µM in the series with NCI-H460, 120 µM in the series on HT-29, 0.9 µM in the series with CCRF-CEM and 135 µM in the series with MCF7. Also, the IC50 at 6 h in series [1] stood at 218 µM.
